Molecules are shown by their SMILES.

Test system in the first series: not listed separately
Put plainly: Toxicity in treated gerbils (deaths or significant weight loss). In kind it is in vivo. Conditions: single oral dose of 50 mg/kg, groups of 3. Set-up: key: +: Toxicity is indicated for those groups having one or more animals expired. The procedure:
In this evaluation, gerbils are infected with Trichostrongylus columbriformis infective larvae at a concentration of approximately 800 L3/mL. Larvae for gerbil infections are cultured from feces from sheep previously infected with T. colubriformis. One week post infection, test compounds are administered by gavage as a single oral dose of 50 mg/kg of body weight. For each group of 3 gerbils, 10 mg of test compound are dissolved in 2 mL of PEG 400:DMSO (1:2 v/v) and each animal is administered the test solution at a rate of 0.1 mL/10 g of body weight. […] All animals are observed daily for morbidity and mortality. Four days post-treatment, all animals are weighed and necropsied. Worm counts are conducted with the use of stereoscopes and counters.
On to `O=C1OC(=Cc2ccc(F)cc2)C(O)=C1c1ccc(C(F)(F)F)cc1` (mixture of isomers) [R=H; R1=4-CF3—C6H4**; R2=4-F—C6H4], for which the Toxicity entry is “+”.

For the compound `N#Cc1ccc(C2=C(O)C(=Cc3ccc(OC(F)(F)F)cc3)OC2=O)cc1` (mixture of isomers) [R=H; R1=4-CN—C6H4**; R2=4-OCF3—C6H4], the Toxicity entry is “+”.

As for `O=C1OC(=Cc2ccc(F)cc2)C(O)=C1c1ccc(Cl)cc1` (mixture of isomers) [R=H; R1=4-Cl—C6H4**; R2=4-F—C6H4], the Toxicity result is on record as “+”.

As to `O=C1OC(=Cc2ccc(Cl)c(Cl)c2)C(O)=C1c1ccc(OC(F)(F)F)cc1` (mixture of isomers) [R=H; R1=4-OCF3—C6H4**; R2=3,4-diCl—C6H3], the Toxicity result is reported as “+”.

Regarding `O=C1OC(=Cc2ccc(F)c(F)c2)C(O)=C1c1ccc(OC(F)(F)F)cc1` (mixture of isomers) [R=H; R1=4-OCF3—C6H4**; R2=3,4-diF—C6H3], the Toxicity result is reported as “+”.

Regarding `O=C1OC(=Cc2ccc(C(F)(F)F)cc2)C(O)=C1c1ccc(OC(F)(F)F)cc1` (mixture of isomers) [R=H; R1=4-OCF3—C6H4**; R2=4-CF3—C6H4], the Toxicity result is listed as “+”.

For `N#Cc1ccc(C=C2OC(=O)C(c3ccc(OC(F)(F)F)cc3)=C2O)cc1` (mixture of isomers) [R=H; R1=4-OCF3—C6H4**; R2=4-CN—C6H4], the Toxicity result was “+”.

Regarding `O=C1OC(=Cc2ccc(Cl)cc2)C(O)=C1c1ccc(OC(F)(F)F)cc1` (mixture of isomers) [R=H; R1=4-OCF3—C6H4**; R2=4-Cl—C6H4], the Toxicity result is listed as “+”.

Turning to `O=C1OC(=Cc2ccc(F)cc2)C(O)=C1c1ccc(OC(F)(F)F)cc1` (mixture of isomers) [R=H; R1=4-OCF3—C6H4**; R2=4-F—C6H4], the Toxicity entry is given as “+”.

For `O=C1OC(=Cc2ccc(OC(F)(F)F)cc2)C(O)=C1c1ccc(OC(F)(F)F)cc1` (mixture of isomers) [R=H; R1=4-OCF3—C6H4**; R2=4-OCF3—C6H4], the Toxicity entry was “+”.

On to `O=C1O/C(=C\c2ccc(-c3ccccc3)cc2)C(O)=C1c1cc(C(F)(F)F)cc(C(F)(F)F)c1` [R=H; R1=3,5-diCF3—C6H3; R2=4-biphenyl], for which the Toxicity entry is on record as “+”.

In the case of `O=C1O/C(=C\c2ccc(-c3ccccc3)cc2)C(O)=C1c1cc(Cl)cc(Cl)c1` [R=H; R1=3,5-diCl—C6H3; R2=4-biphenyl], the Toxicity entry was “+”.

For `N#Cc1ccc(/C=C2\OC(=O)C(c3ccc(C#N)cc3)=C2O)cc1` [R=H; R1=4-CN—C6H4; R2=4-CN—C6H4], the Toxicity result is listed as “+”.

With `N#Cc1ccc(C2=C(O)C(=Cc3ccc(Cl)cc3)OC2=O)cc1` [R=H; R1=4-CN—C6H4; R2=4-Cl—C6H4], the Toxicity entry is recorded as “+”.

For `O=C1O/C(=C\c2ccc(-c3ccc(Cl)cc3)cc2)C(O)=C1c1ccc(Cl)cc1` [R=H; R1=4-Cl—C6H4; R2=4-(4′-Cl-biphenyl)], the Toxicity entry was “+”.

In the case of `N#Cc1ccc(/C=C2\OC(=O)C(c3ccc(Cl)cc3)=C2O)cc1` [R=H; R1=4-Cl—C6H4; R2=4-CN—06H4], the Toxicity entry is “+”.

`O=C1O/C(=C\c2ccc(Cl)cc2)C(O)=C1c1ccc(Cl)cc1` [R=H; R1=4-Cl—C6H4; R2=4-Cl—C6H4]: the Toxicity result is “+”.

In the case of `O=C1O/C(=C\c2ccc(-c3ccccc3)cc2)C(O)=C1c1ccc(Cl)cc1` [R=H; R1=4-Cl—C6H4; R2=4-biphenyl], the Toxicity entry is reported as “+”.

The same series, now with this note: single oral dose of 50 mg/kg, groups of 3, 50 mg/kg.
On to `N#Cc1ccc(-c2ccc(/C=C3\OC(=O)C(c4ccc(Cl)cc4)=C3O)cc2)cc1` [R=H; R1=4-Cl—C6H4; R2=4-(4′-CN-biphenyl)], for which the Toxicity result is “+”.

The subject of a further series is C. elegans. In words: Efficacy against nematodes (C. elegans motility rating). Set-up: key: 0: no effect; 7: reduced movement in 24 h; 8: dead in 24 h; 9: dead in 4 h. As to conditions: dose 100 ppm, observations at 4 h and 24 h postimmersion. In a few lines:
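Mixed-stage C. elegans (~50 per well, L1 to adult) in M9 buffer exposed to test compound at 100 ppm, 150 ppm or 200 μM final. Motility of larvae and adults scored under dissecting microscope at 4 h and 24 h.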
Take `O=C1OC(=Cc2ccc(F)cc2)C(O)=C1c1ccc(C(F)(F)F)cc1` (mixture of isomers) [R=H; R1=4-CF3—C6H4**; R2=4-F—C6H4]: the Rating amounted to 9.

`N#Cc1ccc(C2=C(O)C(=Cc3ccc(OC(F)(F)F)cc3)OC2=O)cc1` (mixture of isomers) [R=H; R1=4-CN—C6H4**; R2=4-OCF3—C6H4] registered a Rating of 9.

In the case of `O=C1OC(=Cc2ccc(F)cc2)C(O)=C1c1ccc(Cl)cc1` (mixture of isomers) [R=H; R1=4-Cl—C6H4**; R2=4-F—C6H4], the Rating is recorded as 9.

In turn, `O=C1OC(=Cc2ccc(Cl)c(Cl)c2)C(O)=C1c1ccc(OC(F)(F)F)cc1` (mixture of isomers) [R=H; R1=4-OCF3—C6H4**; R2=3,4-diCl—C6H3] showed a Rating of 9.

Compound `O=C1OC(=Cc2ccc(F)c(F)c2)C(O)=C1c1ccc(OC(F)(F)F)cc1` (mixture of isomers) [R=H; R1=4-OCF3—C6H4**; R2=3,4-diF—C6H3] returned a Rating of 9.

The compound `O=C1OC(=Cc2ccc(C(F)(F)F)cc2)C(O)=C1c1ccc(OC(F)(F)F)cc1` (mixture of isomers) [R=H; R1=4-OCF3—C6H4**; R2=4-CF3—C6H4] returned a Rating of 9.

In turn, `N#Cc1ccc(C=C2OC(=O)C(c3ccc(OC(F)(F)F)cc3)=C2O)cc1` (mixture of isomers) [R=H; R1=4-OCF3—C6H4**; R2=4-CN—C6H4] came in with a Rating of 9.

With `O=C1OC(=Cc2ccc(Cl)cc2)C(O)=C1c1ccc(OC(F)(F)F)cc1` (mixture of isomers) [R=H; R1=4-OCF3—C6H4**; R2=4-Cl—C6H4], the Rating came out at 9.

Consider `O=C1OC(=Cc2ccc(F)cc2)C(O)=C1c1ccc(OC(F)(F)F)cc1` (mixture of isomers) [R=H; R1=4-OCF3—C6H4**; R2=4-F—C6H4], for which the Rating is 9.

For `O=C1OC(=Cc2ccc(OC(F)(F)F)cc2)C(O)=C1c1ccc(OC(F)(F)F)cc1` (mixture of isomers) [R=H; R1=4-OCF3—C6H4**; R2=4-OCF3—C6H4], the Rating is recorded as 9.

Still in this series, the particulars now being: dose 150 ppm, observations at 4 h and 24 h postimmersion.
With `O=C1O/C(=C\c2ccc(-c3ccccc3)cc2)C(O)=C1c1cc(C(F)(F)F)cc(C(F)(F)F)c1` [R=H; R1=3,5-diCF3—C6H3; R2=4-biphenyl], the Rating came out at 9.

With `O=C1O/C(=C\c2ccc(-c3ccccc3)cc2)C(O)=C1c1cc(Cl)cc(Cl)c1` [R=H; R1=3,5-diCl—C6H3; R2=4-biphenyl], the Rating amounted to 9.

For the compound `N#Cc1ccc(-c2ccc(/C=C3\OC(=O)C(c4ccc(Cl)cc4)=C3O)cc2)cc1` [R=H; R1=4-Cl—C6H4; R2=4-(4′-CN-biphenyl)], the Rating was 9.

Compound `O=C1O/C(=C\c2ccc(-c3ccc(Cl)cc3)cc2)C(O)=C1c1ccc(Cl)cc1` [R=H; R1=4-Cl—C6H4; R2=4-(4′-Cl-biphenyl)] came in with a Rating of 9.

`O=C1O/C(=C\c2ccc(Cl)cc2)C(O)=C1c1ccc(Cl)cc1` [R=H; R1=4-Cl—C6H4; R2=4-Cl—C6H4] came in with a Rating of 9.

The test system of a further series is Trichostrongylus columbriformis. Put plainly: In vivo efficacy against T. colubriformis in infected gerbils. Conditions: gerbils infected with T. colubriformis; single oral dose of 50 mg/kg by gavage; worm counts four days post-treatment; % mortality as compared to negative control. In a few lines:
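Gerbils infected with ~800 L3/mL larvae were treated one week later by gavage with a single 50 mg/kg oral dose in PEG 400:DMSO (1:2 v/v), 3 animals per group. Necropsy four days post-treatment, with worms counted under stereoscopes.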
With `O=C1OC(=Cc2ccc(F)cc2)C(O)=C1c1ccc(C(F)(F)F)cc1` (mixture of isomers) [R=H; R1=4-CF3—C6H4**; R2=4-F—C6H4], the Mortality was determined as 95.80%.

The compound `N#Cc1ccc(C2=C(O)C(=Cc3ccc(OC(F)(F)F)cc3)OC2=O)cc1` (mixture of isomers) [R=H; R1=4-CN—C6H4**; R2=4-OCF3—C6H4] returned a Mortality of 90.00%.

Turning to `O=C1OC(=Cc2ccc(F)cc2)C(O)=C1c1ccc(Cl)cc1` (mixture of isomers) [R=H; R1=4-Cl—C6H4**; R2=4-F—C6H4], the Mortality is 72.60%.

Regarding `O=C1OC(=Cc2ccc(Cl)c(Cl)c2)C(O)=C1c1ccc(OC(F)(F)F)cc1` (mixture of isomers) [R=H; R1=4-OCF3—C6H4**; R2=3,4-diCl—C6H3], the Mortality was determined as 100.0%.

Compound `O=C1OC(=Cc2ccc(F)c(F)c2)C(O)=C1c1ccc(OC(F)(F)F)cc1` (mixture of isomers) [R=H; R1=4-OCF3—C6H4**; R2=3,4-diF—C6H3] showed a Mortality of 100.0%.

`O=C1OC(=Cc2ccc(C(F)(F)F)cc2)C(O)=C1c1ccc(OC(F)(F)F)cc1` (mixture of isomers) [R=H; R1=4-OCF3—C6H4**; R2=4-CF3—C6H4] showed a Mortality of 55.50%.

The compound `N#Cc1ccc(C=C2OC(=O)C(c3ccc(OC(F)(F)F)cc3)=C2O)cc1` (mixture of isomers) [R=H; R1=4-OCF3—C6H4**; R2=4-CN—C6H4] showed a Mortality of 88.90%.

For `O=C1OC(=Cc2ccc(Cl)cc2)C(O)=C1c1ccc(OC(F)(F)F)cc1` (mixture of isomers) [R=H; R1=4-OCF3—C6H4**; R2=4-Cl—C6H4], the Mortality came out at 100.0%.

With `O=C1OC(=Cc2ccc(F)cc2)C(O)=C1c1ccc(OC(F)(F)F)cc1` (mixture of isomers) [R=H; R1=4-OCF3—C6H4**; R2=4-F—C6H4], the Mortality is 0.00%.

`O=C1OC(=Cc2ccc(OC(F)(F)F)cc2)C(O)=C1c1ccc(OC(F)(F)F)cc1` (mixture of isomers) [R=H; R1=4-OCF3—C6H4**; R2=4-OCF3—C6H4] had a Mortality of 100.0%.

In turn, `O=C1O/C(=C\c2ccc(-c3ccccc3)cc2)C(O)=C1c1cc(C(F)(F)F)cc(C(F)(F)F)c1` [R=H; R1=3,5-diCF3—C6H3; R2=4-biphenyl] came in with a Mortality of 60.80%.

The compound `O=C1O/C(=C\c2ccc(-c3ccccc3)cc2)C(O)=C1c1cc(Cl)cc(Cl)c1` [R=H; R1=3,5-diCl—C6H3; R2=4-biphenyl] returned a Mortality of 52.60%.

In turn, `N#Cc1ccc(/C=C2\OC(=O)C(c3ccc(C#N)cc3)=C2O)cc1` [R=H; R1=4-CN—C6H4; R2=4-CN—C6H4] displayed a Mortality of 62.43%.

Regarding `N#Cc1ccc(C2=C(O)C(=Cc3ccc(Cl)cc3)OC2=O)cc1` [R=H; R1=4-CN—C6H4; R2=4-Cl—C6H4], the Mortality was 90.20%.

In turn, `O=C1O/C(=C\c2ccc(-c3ccc(Cl)cc3)cc2)C(O)=C1c1ccc(Cl)cc1` [R=H; R1=4-Cl—C6H4; R2=4-(4′-Cl-biphenyl)] displayed a Mortality of 61.33%.

Take `N#Cc1ccc(/C=C2\OC(=O)C(c3ccc(Cl)cc3)=C2O)cc1` [R=H; R1=4-Cl—C6H4; R2=4-CN—06H4]: the Mortality is recorded as 84.54%.

As to `O=C1O/C(=C\c2ccc(Cl)cc2)C(O)=C1c1ccc(Cl)cc1` [R=H; R1=4-Cl—C6H4; R2=4-Cl—C6H4], the Mortality was 79.78%.

As for `O=C1O/C(=C\c2ccc(-c3ccccc3)cc2)C(O)=C1c1ccc(Cl)cc1` [R=H; R1=4-Cl—C6H4; R2=4-biphenyl], the Mortality is reported as 33.10%.

The same series, now with this note: gerbils infected with T. colubriformis; single oral dose of 50 mg/kg by gavage; worm counts four days post-treatment; % mortality as compared to negative control; 50 mg/kg.
As for `N#Cc1ccc(-c2ccc(/C=C3\OC(=O)C(c4ccc(Cl)cc4)=C3O)cc2)cc1` [R=H; R1=4-Cl—C6H4; R2=4-(4′-CN-biphenyl)], the Mortality was 48.90%.

Source of the values: patent US7495027B2, “3-aryl-4-hydroxyfuranone compounds and the human and animal health use thereof” (Wyeth, priority 2003, dated 2009).
